The values below are quoted from earlier work in PubChem BioAssay AID1259409 (Chemical Carcinogenesis Research Information System (CCRIS), 2018).

This data set deals with rodent chemically induced tumor inhibition, incidence and multiplicity. Kind of data set: CCRIS tumor inhibitor studies. The conditions noted are these: Species: MOUSE.

Structures are written as SMILES.

For the molecule `CC1=C[C@H]2O[C@@H]3[C@H](O)[C@@H](O)[C@](C)([C@@]2(CO)[C@H](O)C1=O)[C@]31CO1`, the “tumour outcome (control, treated, inhibition, significance)” value was 8/26 (31%), 3/15 (20%), 35%, not significant (Dose [Inhibitor]: 0, 6 PPM IN DIET BEGINNING 6 WK POST CARCINOGEN DOSE AND CONTINUING FOR 65 WK (STUDY DURATION: 65 WK), Route [Inhibitor]: ORAL, Strain/Sex: B6C3F1/FEMALE, Target Tissue: Type of Lesion: LIVER: TUMOR, Dose [Carcinogen]: 6 MG/KG ONCE, Promoter: NONE USED); 6/26 (23%), 1/15 (7%), 70%, not calculated (Dose [Inhibitor]: 0, 6 PPM IN PELLET DIET FOR 1 YR BEGINNING 7 WK POST CARCINOGEN (STUDY DURATION: 60 WK), Route [Inhibitor]: ORAL, Strain/Sex: B6C3F1/FEMALE, Target Tissue: Type of Lesion: LIVER: HEPATOCELLULAR ADENOMA, Dose [Carcinogen]: 6 MG/KG ONCE); 8/26 (31%), 3/15 (20%), 35%, not significant (Dose [Inhibitor]: 0, 6 PPM IN PELLET DIET FOR 1 YR BEGINNING 7 WK POST CARCINOGEN (STUDY DURATION: 60 WK), Route [Inhibitor]: ORAL, Strain/Sex: B6C3F1/FEMALE, Target Tissue: Type of Lesion: LIVER: HEPATOCELLULAR TUMOR, Dose [Carcinogen]: 6 MG/KG ONCE); 8/26 (31%), 0/19 (0%), 100%, p<0.01 (Dose [Inhibitor]: 0, 12 PPM IN DIET BEGINNING 6 WK POST CARCINOGEN DOSE AND CONTINUING FOR 65 WK (STUDY DURATION: 65 WK), Route [Inhibitor]: ORAL, Strain/Sex: B6C3F1/FEMALE, Target Tissue: Type of Lesion: LIVER: TUMOR, Dose [Carcinogen]: 6 MG/KG ONCE, Promoter: NONE USED); 19/19 (100%), 18/18 (100%), 0%, not significant (Dose [Inhibitor]: 0, 12 PPM IN DIET BEGINNING 6 WK POST CARCINOGEN DOSE AND CONTINUING FOR 65 WK (STUDY DURATION: 65 WK), Route [Inhibitor]: ORAL, Strain/Sex: B6C3F1/MALE, Target Tissue: Type of Lesion: LIVER: TUMOR, Dose [Carcinogen]: 6 MG/KG ONCE, Promoter: NONE USED); 17/19 (89%), 15/18 (83%), 7%, not calculated (Dose [Inhibitor]: 0, 12 PPM IN DIET FOR 1 YR BEGINNING 7 WK POST CARCINOGEN (STUDY DURATION: 60 WK), Route [Inhibitor]: ORAL, Strain/Sex: B6C3F1/MALE, Target Tissue: Type of Lesion: LIVER: HEPATOCELLULAR CARCINOMA, Dose [Carcinogen]: 6 MG/KG ONCE). The “tumour outcome (control, treated, inhibition, significance)” value is recorded as 6/26 (23%), 0/19 (0%), 100%, not calculated (Dose [Inhibitor]: 0, 12 PPM IN PELLET DIET FOR 1 YR BEGINNING 7 WK POST CARCINOGEN (STUDY DURATION : 60 WK), Route [Inhibitor]: ORAL, Strain/Sex: B6C3F1/FEMALE, Target Tissue: Type of Lesion: LIVER: HEPATOCELLULAR ADENOMA, Dose [Carcinogen]: 6 MG/KG ONCE); 1/26 (4%), 0/19 (0%), 100%, not calculated (Dose [Inhibitor]: 0, 12 PPM IN PELLET DIET FOR 1 YR BEGINNING 7 WK POST CARCINOGEN (STUDY DURATION : 60 WK), Route [Inhibitor]: ORAL, Strain/Sex: B6C3F1/FEMALE, Target Tissue: Type of Lesion: LIVER: HEPATOCELLULAR CARCINOMA, Dose [Carcinogen]: 6 MG/KG ONCE); 8/26 (31%), 0/19 (0%), 100%, p<0.01 (Dose [Inhibitor]: 0, 12 PPM IN PELLET DIET FOR 1 YR BEGINNING 7 WK POST CARCINOGEN (STUDY DURATION : 60 WK), Route [Inhibitor]: ORAL, Strain/Sex: B6C3F1/FEMALE, Target Tissue: Type of Lesion: LIVER: HEPATOCELLULAR TUMOR, Dose [Carcinogen]: 6 MG/KG ONCE); 19/19 (100%), 18/18 (100%), 0%, not significant (Dose [Inhibitor]: 0, 12 PPM IN PELLET FOR 1 YR BEGINNING 7 WK POST CARCINOGEN (STUDY DURATION: 60 WK), Route [Inhibitor]: ORAL, Strain/Sex: B6C3F1/MALE, Target Tissue: Type of Lesion: LIVER: HEPATOCELLULAR TUMOR, Dose [Carcinogen]: 6 MG/KG ONCE).
On to `C=C(NC(=O)Cc1ccc(OS(=O)(=O)O)cc1)C(=O)O`, for which the “tumour outcome (control, treated, inhibition, significance)” value (Carcinogen: 7,12-DIMETHYLBENZ[A]ANTHRACENE, 57-97-6, Dose [Inhibitor]: 0, 1 MMOL 15 MINUTES AFTER EACH PROMOTER TREATMENT BEGINNING 2 WK POST CARCINOGEN (STUDY DURATION: 42 WK), Route [Inhibitor]: DERMAL, Strain/Sex: SENCAR/FEMALE, Target Tissue: Type of Lesion: SKIN: SQUAMOUS CELL CARCINOMA, Dose [Carcinogen]: 10 NMOL IN 0.2 ML ACETONE ONCE) is reported as 48%, 25%, 48%, not calculated.
Take `CCCCNC(=O)/C=C(C)/C=C/C=C(C)/C=C/C1=C(C)CCCC1(C)C`: the “tumour outcome (control, treated, inhibition, significance)” value (Carcinogen: N-BUTYL-N-(4-HYDROXYBUTYL)NITROSAMINE, 3817-11-6, Dose [Inhibitor]: 1.5 MMOL/KG DIET DAILY FOR 133 D STARTING ONE WK AFTER THE FINAL CARCINOGEN DOSE (STUDY DURATION: 190 D), Route [Inhibitor]: ORAL, Strain/Sex: BDF/MALE, Target Tissue: Type of Lesion: URINARY BLADDER: TRANSITIONAL CELL CARCINOMA, Dose [Carcinogen]: 7.5 MG 1/WK FOR 8 WK, Promoter: NONE USED) is reported as 21/100 (21%), 19/100 (19%), 10%, not significant and the “tumour outcome (control, treated, inhibition, significance)” value (Carcinogen: N-BUTYL-N-(4-HYDROXYBUTYL)NITROSAMINE, 3817-11-6, Dose [Inhibitor]: 1.5 MMOL/KG IN DIET FOR 133 D STARTING 1 WK AFTER THE LAST CARCINOGEN DOSE (STUDY DURATION: 190 D), Route [Inhibitor]: ORAL, Strain/Sex: DBF1/MALE, Target Tissue: Type of Lesion: URINARY BLADDER: TRANSITIONAL CELL CARCINOMA, Dose [Carcinogen]: 7.5 MG 1/WK FOR 8 WK, Promoter: NONE USED) is 21/100 (21%), 19/100 (19%), 10%, not significant.
Consider `CS(=O)(=O)Nc1ccc([N+](=O)[O-])cc1OC1CCCCC1`, for which, for the setting “Carcinogen: 4-METHYLNITROSAMINO)-1-(3-PYRIDYL)-1-BUTANONE, 64091-91-4, Dose [Inhibitor]: 0, 7 MMOL/KG BW/D IN DIET FOR DURATION OF STUDY BEGINNING 2 WK PRIOR TO CARCINOGEN TREATMENT (STUDY DURATION: 25 WK), Route [Inhibitor]: ORAL, Strain/Sex: STRAIN-A/FEMALE, Target Tissue: Type of Lesion: LUNG: TUMOR, Dose [Carcinogen]: 2.2 MMOL/KG BW (TOTAL DOSE) ADMINISTERED IN DRINKING WATER FOR 7 WK, Promoter: NONE USED”, the “tumour outcome (control, treated, inhibition, significance)” value was 29/29 (100%), 25/25 (100%), 0%, not significant.
